These results are taken from patent US10526316B2, “Quinoxaline and pyridopyrazine derivatives as PI3Kβ inhibitors” (Janssen Pharmaceutica NV, priority 2015, dated 2020).

Molecules are shown by their SMILES. Read-outs that look alike come from different tables or passages of the source. Some results are limits rather than exact numbers.

Series [1] deals with Akt phosphorylated at Thr308 in PC-3 cells. Kind of series: Cellular assay: phosphorylation of Akt at Thr308 in PC-3 cells (MSD ELISA). Format: cell-based. To be noted: PC-3 cells, 60 min compound incubation, MSD ELISA, read-out: IC50 pAkt_Thr308. An outline of the steps:
(§1)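 Compound treatment of PC-3 cells lasted 60 min at 37° C (0.3% DMSO). Lysates were then applied to plates carrying capture antibodies for the relevant phospho-site, and bound Akt was detected with an electrochemiluminescent anti-total Akt antibody; IC50s derive from five-point curves.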

For a further series, the target named is T1, PI3Kδ (Homo sapiens, UniProt O00329).
T1 construct: purchased DiscoveRx Corporation, San Diego (contract service, KINOMEscan)
T1 sequence (O00329 1-1044): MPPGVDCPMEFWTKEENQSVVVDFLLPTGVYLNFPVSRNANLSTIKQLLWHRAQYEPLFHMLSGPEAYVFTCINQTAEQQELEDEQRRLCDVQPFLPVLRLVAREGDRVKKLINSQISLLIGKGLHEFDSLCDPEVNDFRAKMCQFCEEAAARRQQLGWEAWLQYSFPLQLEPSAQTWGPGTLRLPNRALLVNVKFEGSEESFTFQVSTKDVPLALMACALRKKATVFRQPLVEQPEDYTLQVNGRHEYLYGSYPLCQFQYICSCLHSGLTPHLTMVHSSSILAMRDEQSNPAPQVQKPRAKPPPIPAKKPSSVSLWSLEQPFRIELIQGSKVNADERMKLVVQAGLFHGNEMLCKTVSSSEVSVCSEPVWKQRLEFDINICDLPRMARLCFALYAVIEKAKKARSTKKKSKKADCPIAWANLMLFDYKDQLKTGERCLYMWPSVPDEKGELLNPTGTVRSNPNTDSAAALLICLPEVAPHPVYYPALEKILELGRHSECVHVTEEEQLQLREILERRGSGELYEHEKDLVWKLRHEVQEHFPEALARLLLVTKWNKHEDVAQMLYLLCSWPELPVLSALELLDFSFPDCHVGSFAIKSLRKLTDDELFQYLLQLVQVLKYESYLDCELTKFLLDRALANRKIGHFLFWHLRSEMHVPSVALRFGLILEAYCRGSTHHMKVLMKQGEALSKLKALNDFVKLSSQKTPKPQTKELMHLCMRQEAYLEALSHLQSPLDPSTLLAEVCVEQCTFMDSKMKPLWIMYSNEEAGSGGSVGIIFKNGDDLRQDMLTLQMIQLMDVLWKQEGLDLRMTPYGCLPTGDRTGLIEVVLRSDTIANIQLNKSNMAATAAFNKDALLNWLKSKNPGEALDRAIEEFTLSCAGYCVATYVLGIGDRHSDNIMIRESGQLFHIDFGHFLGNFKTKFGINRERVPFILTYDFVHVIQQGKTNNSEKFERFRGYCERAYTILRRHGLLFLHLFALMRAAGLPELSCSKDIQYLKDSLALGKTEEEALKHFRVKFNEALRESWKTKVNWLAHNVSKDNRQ
As to the kind of experiment: Enzyme binding assay (KINOMEscan, DiscoveRx). As to conditions: PIK3Cδ_h. Summed up: (§2)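 Uses KINOMEscan technology to determine binding affinity toward the kinase enzymes.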

In the next series the target is T2, PI3Kβ (Homo sapiens, UniProt P42338).
T2 construct: purchased DiscoveRx Corporation, San Diego (contract service, KINOMEscan)
T2 sequence (P42338 whole entry): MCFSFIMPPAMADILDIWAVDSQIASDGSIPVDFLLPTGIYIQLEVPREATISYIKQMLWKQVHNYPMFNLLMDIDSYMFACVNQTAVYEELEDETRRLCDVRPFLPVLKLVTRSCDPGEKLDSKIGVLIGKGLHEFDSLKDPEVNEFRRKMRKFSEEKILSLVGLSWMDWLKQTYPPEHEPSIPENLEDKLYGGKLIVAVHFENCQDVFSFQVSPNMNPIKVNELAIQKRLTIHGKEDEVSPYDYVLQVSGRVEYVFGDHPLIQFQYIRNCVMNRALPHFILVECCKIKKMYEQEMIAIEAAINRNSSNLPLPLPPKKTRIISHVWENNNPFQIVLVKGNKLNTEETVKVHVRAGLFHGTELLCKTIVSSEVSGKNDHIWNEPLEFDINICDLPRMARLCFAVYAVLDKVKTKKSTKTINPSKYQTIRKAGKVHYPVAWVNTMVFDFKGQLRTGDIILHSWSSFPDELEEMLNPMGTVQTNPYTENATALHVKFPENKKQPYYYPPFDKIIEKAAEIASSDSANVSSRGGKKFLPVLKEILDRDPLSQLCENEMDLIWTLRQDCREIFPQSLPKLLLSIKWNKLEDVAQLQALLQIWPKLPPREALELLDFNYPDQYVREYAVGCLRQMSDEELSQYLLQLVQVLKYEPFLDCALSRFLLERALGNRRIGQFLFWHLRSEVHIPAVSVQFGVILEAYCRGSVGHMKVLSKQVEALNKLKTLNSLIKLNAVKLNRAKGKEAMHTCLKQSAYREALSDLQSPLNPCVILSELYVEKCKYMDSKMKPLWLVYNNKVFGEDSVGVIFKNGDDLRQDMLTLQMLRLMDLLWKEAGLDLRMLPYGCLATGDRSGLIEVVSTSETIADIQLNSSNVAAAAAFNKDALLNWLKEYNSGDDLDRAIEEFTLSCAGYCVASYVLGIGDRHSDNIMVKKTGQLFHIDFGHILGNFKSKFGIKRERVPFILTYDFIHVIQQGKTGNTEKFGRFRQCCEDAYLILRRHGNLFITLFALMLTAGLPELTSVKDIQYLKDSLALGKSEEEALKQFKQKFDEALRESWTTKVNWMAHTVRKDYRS
As to the kind of experiment: Enzyme binding assay (KINOMEscan, DiscoveRx). As to conditions: PIK3Cβ_h, read-out: Kd PIK3Cβ_h. An outline of the steps:
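Using the KINOMEscan format, the enzyme binding affinity of each compound was determined. Each value is the inhibitor binding constant, Kd (nM).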

In series [2] the target is T3, kinase enzymes (Homo sapiens, UniProt P48736).
T3 construct: purchased DiscoveRx Corporation, San Diego (contract service, KINOMEscan)
T3 sequence (P48736 whole entry): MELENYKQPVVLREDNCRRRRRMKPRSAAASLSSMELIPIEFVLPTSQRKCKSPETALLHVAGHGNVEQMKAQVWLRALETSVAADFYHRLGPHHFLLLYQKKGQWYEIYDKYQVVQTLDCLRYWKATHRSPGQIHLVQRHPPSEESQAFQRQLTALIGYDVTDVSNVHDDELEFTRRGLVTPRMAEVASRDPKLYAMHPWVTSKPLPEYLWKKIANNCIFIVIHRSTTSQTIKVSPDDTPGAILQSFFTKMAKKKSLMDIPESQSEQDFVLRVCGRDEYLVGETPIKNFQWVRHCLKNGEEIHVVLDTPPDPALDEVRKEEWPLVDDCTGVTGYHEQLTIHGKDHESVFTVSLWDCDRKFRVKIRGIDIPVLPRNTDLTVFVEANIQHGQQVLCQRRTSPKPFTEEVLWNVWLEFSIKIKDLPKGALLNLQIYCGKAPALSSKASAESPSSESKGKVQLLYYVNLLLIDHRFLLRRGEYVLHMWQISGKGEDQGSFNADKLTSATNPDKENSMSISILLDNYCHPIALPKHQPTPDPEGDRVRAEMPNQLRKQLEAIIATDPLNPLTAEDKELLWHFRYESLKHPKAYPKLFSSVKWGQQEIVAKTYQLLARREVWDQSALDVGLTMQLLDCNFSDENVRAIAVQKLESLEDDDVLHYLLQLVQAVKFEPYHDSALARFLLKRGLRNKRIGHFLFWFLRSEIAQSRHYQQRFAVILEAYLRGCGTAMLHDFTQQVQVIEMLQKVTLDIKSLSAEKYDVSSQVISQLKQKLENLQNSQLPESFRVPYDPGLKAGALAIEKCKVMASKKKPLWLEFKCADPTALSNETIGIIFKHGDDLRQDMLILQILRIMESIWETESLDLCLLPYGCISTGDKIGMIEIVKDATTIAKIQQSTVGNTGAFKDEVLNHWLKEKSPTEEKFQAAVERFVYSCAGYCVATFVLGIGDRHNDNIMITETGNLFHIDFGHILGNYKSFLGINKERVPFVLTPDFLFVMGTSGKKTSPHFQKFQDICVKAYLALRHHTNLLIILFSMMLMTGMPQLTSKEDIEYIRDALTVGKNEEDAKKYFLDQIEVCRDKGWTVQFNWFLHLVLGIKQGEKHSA
Kind of series: Enzyme binding assay (KINOMEscan, DiscoveRx), further kinases of Table A. To be noted: PIK3Cγ_h. Summed up: as §2

The target in series [3] is T4, kinase enzymes (Homo sapiens, UniProt P42336).
T4 construct: purchased DiscoveRx Corporation, San Diego (contract service, KINOMEscan)
T4 sequence (P42336 whole entry): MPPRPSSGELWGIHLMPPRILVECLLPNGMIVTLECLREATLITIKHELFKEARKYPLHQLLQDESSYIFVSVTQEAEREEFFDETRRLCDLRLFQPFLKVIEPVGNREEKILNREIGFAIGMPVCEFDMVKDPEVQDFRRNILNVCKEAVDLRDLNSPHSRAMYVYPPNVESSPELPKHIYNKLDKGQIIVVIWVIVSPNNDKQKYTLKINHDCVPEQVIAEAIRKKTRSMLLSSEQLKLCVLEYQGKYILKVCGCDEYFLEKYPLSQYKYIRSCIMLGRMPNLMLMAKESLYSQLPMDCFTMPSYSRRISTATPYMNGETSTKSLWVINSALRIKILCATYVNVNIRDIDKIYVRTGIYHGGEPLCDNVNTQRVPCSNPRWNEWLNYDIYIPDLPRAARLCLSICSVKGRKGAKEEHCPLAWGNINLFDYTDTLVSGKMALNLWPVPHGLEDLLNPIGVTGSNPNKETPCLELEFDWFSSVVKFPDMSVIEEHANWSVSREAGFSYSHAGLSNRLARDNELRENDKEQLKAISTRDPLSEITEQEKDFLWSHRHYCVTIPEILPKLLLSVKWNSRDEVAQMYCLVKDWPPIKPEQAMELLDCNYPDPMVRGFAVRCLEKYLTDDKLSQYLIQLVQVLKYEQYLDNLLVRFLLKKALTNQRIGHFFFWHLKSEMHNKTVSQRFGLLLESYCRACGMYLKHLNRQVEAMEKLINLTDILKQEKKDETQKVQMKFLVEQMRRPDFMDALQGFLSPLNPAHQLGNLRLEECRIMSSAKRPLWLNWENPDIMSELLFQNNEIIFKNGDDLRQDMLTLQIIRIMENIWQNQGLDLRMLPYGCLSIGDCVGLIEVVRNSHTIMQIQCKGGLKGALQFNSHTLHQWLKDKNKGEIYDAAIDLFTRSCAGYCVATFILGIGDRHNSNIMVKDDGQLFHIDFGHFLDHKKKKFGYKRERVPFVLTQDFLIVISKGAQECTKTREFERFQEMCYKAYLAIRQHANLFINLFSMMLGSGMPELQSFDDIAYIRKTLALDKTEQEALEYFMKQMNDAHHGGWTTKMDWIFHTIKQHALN
The description is as above. As to conditions: PIK3Cα_h. An outline of the steps:
as §2

The target of series [4] is T5, kinase enzymes (Homo sapiens, UniProt P42345).
T5 construct: purchased DiscoveRx Corporation, San Diego (contract service, KINOMEscan)
The description is as above. As to conditions: MTOR_h. Summed up:
as §2

Series [5] relates to Akt phosphorylated at Ser473 in PC-3 cells. As to the kind of experiment: Cellular assay: phosphorylation of Akt at Ser473 in PC-3 cells (MSD ELISA). Format: cell-based. As to conditions: PC-3 cells, 60 min compound incubation, MSD ELISA, read-out: IC50 pAkt_S473. An outline of the steps:
as §1
On the technique in general: An ELISA detects its analyte on a solid surface through an enzyme-linked reagent.

The molecule `CNCCNC(=O)c1cc(C(C)Oc2cc(F)cc(F)c2)c2nc(N3CCOCC3)cnc2c1` (single isomer, unassigned) [Compound 165] displayed a melting point of 80 °C. Besides, in series [1], the IC50 was found to be 11 nM. The same molecule gave a Kd at PI3Kδ of 182 nM. Besides, the Kd at PI3Kβ turned out to be 0.3 nM. Further, on kinase enzymes [2], the Kd is 5490 nM. This molecule also displayed a Kd on kinase enzymes [3] of 1780 nM. Besides, at kinase enzymes [4], binding was put at a Kd of 14100 nM. Also, the IC50 in series [5] amounted to 45 nM.
`CNCCNC(=O)c1cc(C(C)Oc2ccc(F)c(F)c2)c2nc(N3CCOCC3)cnc2c1` (single isomer, unassigned) [Compound 344a] returned a melting point of 75 °C. In addition, the IC50 in series [1] turned out to be 56 nM. For the same molecule, the Kd at PI3Kδ came out at 288 nM. Also, the Kd at PI3Kβ was found to be 2 nM. The same molecule gave a Kd at kinase enzymes [2] of 8320 nM. The molecule further returned a Kd on kinase enzymes [3] of 2140 nM. For the same molecule, the Kd at kinase enzymes [4] is > 30200 nM. Besides, the IC50 in series [5] is > 102 nM.
Consider `CC(Nc1cc(F)cc(F)c1)c1cc(C(=O)NCCO)cc2ncc(N3CCOCC3)nc12` (single isomer, unassigned) [Compound 188], for which the melting point was 80 °C. Also, in series [1], the IC50 is 15 nM. This molecule also had a Kd on PI3Kδ of 182 nM. The Kd at PI3Kβ amounted to 1 nM. The same molecule registered a Kd at kinase enzymes [2] of 2290 nM. Moreover, on kinase enzymes [3], the Kd is 851 nM. The same molecule displayed a Kd at kinase enzymes [4] of 16200 nM. Besides, the IC50 in series [5] came out at 22 nM.
Take `CC(Nc1cccc(F)c1)c1cc(C(=O)N2CCOCC2)cc2ncc(N3CCOCC3)nc12` (stereo not drawn) [Compound 104]: the melting point was determined as 80 °C. For the same molecule, the IC50 in series [1] (Homo sapiens, PC-3, 1 h) was 55 nM. The molecule also came in with a Kd on PI3Kδ of 263 nM. Moreover, the Kd at PI3Kβ was 3 nM. Further, at kinase enzymes [2], binding was put at a Kd of 17800 nM. This molecule returned an equilibrium dissociation constant (Kd) at kinase enzymes [3] of 1350 nM. Also, the Kd on kinase enzymes [4] was > 30200 nM. Also, in series [5] (Homo sapiens, PC-3, 1 h), the IC50 amounted to 110 nM.
The molecule `NC1CCN(C(=O)c2cc(C3CCCN3c3cc(F)cc(F)c3)c3nc(N4CCOCC4)cnc3c2)CC1` (stereo not drawn) [Compound 75] displayed a melting point of 80 °C. Also, in series [1] (Homo sapiens, PC-3, 1 h), the IC50 was 1 nM. On PI3Kδ, this molecule gave a Kd of 2 nM. Besides, the Kd on PI3Kβ stood at 0.1 nM. In addition, on kinase enzymes [2], binding was put at a Kd of 4 nM. The molecule further yielded a Kd at kinase enzymes [3] of 30 nM. In addition, the Kd at kinase enzymes [4] is > 30200 nM. For the same molecule, the IC50 in series [5] (Homo sapiens, PC-3, 1 h) was found to be 2 nM.
`C[C@H](CO)NC(=O)c1cc(C2CCCN2c2cc(F)cc(F)c2)c2nc(N3CCOCC3)cnc2c1` (single isomer, unassigned) [Compound 70] showed a melting point of 80 °C. Moreover, the IC50 in series [1] (Homo sapiens, PC-3, 1 h) came out at 23 nM. For the same molecule, on PI3Kδ, the affinity, expressed as Kd, was 148 nM. Further, on PI3Kβ, the Kd came to 2 nM. In addition, the Kd at kinase enzymes [2] came out at 1100 nM. Further, the affinity on kinase enzymes [3], expressed as Kd, was 339 nM. Also, at kinase enzymes [4], the Kd came to 19100 nM. Moreover, in series [5] (Homo sapiens, PC-3, 1 h), the IC50 is ~45 nM.
In turn, `CC(Nc1ccc(F)c(F)c1)c1cc(C(=O)N2CCN3CCC[C@@H]3C2)cc2ncc(N3CCOCC3)nc12` (single isomer, unassigned) [Compound 347a] returned a melting point of 125 °C. The IC50 in series [1] (Homo sapiens, PC-3, 1 h) was > 513 nM. Further, on PI3Kδ, the Kd was > 30200 nM. Further, the Kd on PI3Kβ turned out to be 2690 nM. In addition, on kinase enzymes [2], the Kd is > 30200 nM. The Kd on kinase enzymes [3] was > 30200 nM. Further, the Kd at kinase enzymes [4] is > 30200 nM. Also, the IC50 in series [5] (Homo sapiens, PC-3, 1 h) is > 513 nM.
Consider `CC(Nc1cc(F)cc(F)c1)c1cc(CO)cc2ncc(N3CCOCC3)nc12` (stereo not drawn) [Compound 84], for which the melting point was 80 °C. Further, the IC50 in series [1] (Homo sapiens, PC-3, 1 h) is 32 nM. This molecule also gave a Kd on PI3Kδ of 96 nM. The Kd on PI3Kβ was 1 nM. The molecule also came in with a Kd on kinase enzymes [2] of 1290 nM. The Kd on kinase enzymes [3] stood at 692 nM. Further, on kinase enzymes [4], the affinity, expressed as Kd, was 8510 nM. In addition, the IC50 in series [5] (Homo sapiens, PC-3, 1 h) is 56 nM.
For the molecule `CC(Nc1cc(F)c(F)c(F)c1)c1cc(C(=O)NCC(C)(C)O)cc2ncc(N3CCOCC3)nc12` (stereo not drawn) [Compound 292], the melting point is 80 °C. Moreover, the IC50 in series [1] (Homo sapiens, PC-3, 1 h) came out at 234 nM. Further, binding at PI3Kδ was put at a Kd of 1700 nM. Besides, the Kd at PI3Kβ came to 16 nM. The affinity at kinase enzymes [2], expressed as Kd, was 27500 nM. This molecule also registered a dissociation constant (Kd) on kinase enzymes [3] of 6610 nM. In addition, the Kd at kinase enzymes [4] is > 30200 nM. Further, the IC50 in series [5] (Homo sapiens, PC-3, 1 h) came out at 437 nM.

By IC50 is commonly meant the point on the concentration scale where inhibition reaches its midpoint. Usually melting point stands for the temperature of the solid-liquid transition. Broadly, the Kd is the equilibrium constant for the complex coming apart.
